Experimental data as given in patent publication US20090137612A1, “Treatment with combined use of oxypurines and ascorbate to prevent and mitigate iron-catalized oxidative damage in Alzheimer's disease and other neurodegenerative disorders” (priority 2007, published 2009).
Values belong to the compound of their own block, whether it stands above or below them.

Tests used:
[1] = Inhibition of o-dianisidine oxidation induced by reaction of ferrous sulfate with hydrogen peroxide (colorimetric, 460 nm); assay type: biochemical
Description: (§1) All chemicals used in the following first 4 EXAMPLES for this invention were of analytical quality. A colorimeter was used to detect peroxidations of o-dianisidine, 9 mg/dL, as chromogenic hydrogen donor when oxidized, with its absorbance measured at 460 nm in saline solutions (140 mM NaCl, buffered by 3 mM phosphate salts at pH 7.4). Ferrous sulfate or human hemoglobin was added to control and to test solutions containing uric acid or ascorbic acid shortly before the addition of hydrogen peroxide, with oxidized molecules of dianisidine measured promptly. The saline solutions were mimetic of cerebrospinal fluid except devoid of possible confounding other molecules.
Uric Acid Inhibition of Substrate Oxidations Induced by Reaction of Ferrous Sulfate (9.8 Micromolar) with 20 Micromolar Hydrogen Peroxide
Comment: All incubations were done at 25-28° Celsius.
Ascorbic Acid Inhibition at 1.6 mg/dl of Substrate Oxidation Induced by Reaction of Ferrous Sulfate (9.8 Micromolar) with 20 Micromolar Hydrogen Peroxide

[2] = target: human hemoglobin (Homo sapiens, UniProt P68871+P69905); test: Inhibition of o-dianisidine oxidation by human hemoglobin in reaction with hydrogen peroxide (colorimetric, 460 nm); assay type: biochemical; details: hemoglobin 12 mg/dl, 20 micromolar H2O2
Description: as §1
Uric Acid Inhibition of Substrate Oxidation by Human Hemoglobin Level of 12 mg/dl in Reaction with 20 Micromolar Hydrogen Peroxide
Ascorbic Acid Inhibition at 1.6 mg/dl of Substrate Oxidation Induced by Human Hemoglobin Level of 12 mg//dl in Reaction with 20 Micromolar Hydrogen Peroxide
Comments: The inhibition remained virtually complete in EXAMPLE 4 at 10 minutes of continued exposure to the hydrogen peroxide, in spite of greater absorbance increase or oxidation in the control solutions from continuing reaction of the peroxide with the iron that resided in the hemoglobin. […] He used higher concentrations of hemoglobin and hydrogen peroxide (e.g. 0.67 or 0.8 mM of hydrogen peroxide) in phosphate-saline buffer with 2 hour incubations at 37° C.

[3] = cited from earlier work; for elevating human serum uric acid levels when given orally: humans (normal adults and gouty individuals), literature
[4] = known in the art, in words; cited from earlier work
[5] = intravenously, healthy humans; Chamorro A et al., 2004; cited from earlier work
[6] = Ascorbate 1.6 mg/dL, 5 min. after H2O2, n = 4
[7] = Ascorbate 1.6 mg/dL, 10 min. after H2O2, n = 4
[8] = Urate 0.5 mg/dL, 5 min. after H2O2, n 4
[9] = Urate 0.5 mg/dL, 10 min. after H2O2, n 4
[10] = Urate 6.0 mg/dL, 10 min. after H2O2, n 4

Chain of human hemoglobin (P69905 2-142 limits assumed): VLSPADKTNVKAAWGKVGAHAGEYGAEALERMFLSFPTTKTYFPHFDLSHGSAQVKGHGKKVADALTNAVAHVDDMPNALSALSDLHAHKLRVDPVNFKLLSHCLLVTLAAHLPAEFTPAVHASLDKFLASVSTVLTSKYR
Chain of human hemoglobin (P68871 2-147 limits assumed): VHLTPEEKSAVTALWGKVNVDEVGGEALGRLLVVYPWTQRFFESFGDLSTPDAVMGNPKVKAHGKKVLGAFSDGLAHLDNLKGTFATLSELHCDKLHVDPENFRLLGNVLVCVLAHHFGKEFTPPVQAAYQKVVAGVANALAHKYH

% Inhibition [2, 6]: 100.0 ± 0.0 %
Absorbance Increase [2, 6]: 0.000 ± 0.000
% Inhibition [2, 7]: 99.8 ± 1.2 %
Absorbance Increase [2, 7]: 0.001 ± 0.008
SMILES: O=C1O[C@H]([C@@H](O)CO)C(O)=C1O [Ascorbate, L-ascorbic acid]
Absorbance Increase ([1]; Ascorbate 1.6 mg/dL, 5 min. after H2O2, mean ± s.e.m., n = 4): 0.000 ± 0.000
% Inhibition [1, 6]: 100.0 ± 0.0 %
% Inhibition [1, 7]: 100.0 ± 0.0 %
Absorbance Increase [1, 7]: 0.000 ± 0.000

% Inhibition [2, 8]: 50.7 ± 7.56 %
Absorbance Increase [2, 8]: 0.028 ± 0.004
% Inhibition [2, 9]: 38.8 ± 3.25 %
Absorbance Increase [2, 9]: 0.052 ± 0.009
Absorbance Increase ([2]; Urate 6.0 mg/dL, 5 min. after H2O2, mean ± s.e.m., n 4): 0.006 ± 0.002
% Inhibition ([2]; Urate 6.0 mg/dL, 5 min. after H2O2, n 4): 90.6 ± 0.90 %
% Inhibition [2, 10]: 80.3 ± 3.54 %
Absorbance Increase [2, 10]: 0.016 ± 0.005
SMILES: O=c1[nH]c(=O)c2[nH]c(=O)[nH]c2[nH]1 [Urate, 2,6,8-oxypurine]
elevating human serum uric acid levels when given orally [3]: ineffective
Absorbance Increase ([1]; Urate 0.5 mg/dL, 5 min. after H2O2, 460 nm, mean ± s.e.m., n 5): 0.030 ± 0.003
% Inhibition ([1]; Urate 0.5 mg/dL, 5 min. after H2O2, mean ± s.e.m., n 5): 36.8 ± 5.3 %
Absorbance Increase ([1]; Urate 0.5 mg/dL, 10 min. after H2O2, 460 nm, mean ± s.e.m., n 5): 0.034 ± 0.017
% Inhibition ([1]; Urate 0.5 mg/dL, 10 min. after H2O2, mean ± s.e.m., n 5): 26.5 ± 5.5 %
Absorbance Increase ([1]; Urate 6.0 mg/dL, 5 min. after H2O2, 460 nm, pH 7.4 saline, 25-28° Celsius, mean ± s.e.m., n 5): 0.012 ± 0.003
% Inhibition ([1]; Urate 6.0 mg/dL, 5 min. after H2O2, mean ± s.e.m., n 5): 75.3 ± 4.8 %
Absorbance Increase ([1]; Urate 6.0 mg/dL, 10 min. after H2O2, 460 nm, mean ± s.e.m., n 5): 0.014 ± 0.003
% Inhibition ([1]; Urate 6.0 mg/dL, 10 min. after H2O2, mean ± s.e.m., n 5): 70.9 ± 4.5 %
solubility in water [4]: difficulty soluble in water
tolerability of intravenous administration [5]: without untoward effects

SMILES: O=c1[nH]cnc2nc[nH]c12 [hypoxanthine]
raise of serum or plasma uric acid level ([3]; about 0.9 gram given orally (0.1 mmole/kg), persons of near 70 kg, Clifford A J et al., 1976): about 2.4 mg/dL
elevating human serum uric acid levels when given orally [3]: effectively raise serum uric acid levels
solubility in water [4]: more soluble in water

SMILES: O=c1[nH]c(=O)c2[nH]cnc2[nH]1 [xanthine]
elevating human serum uric acid levels when given orally [3]: not
solubility in water [4]: difficulty soluble in water
